Experimental data as given in publication PMC8875489, “Pharmaceutical and Safety Profile Evaluation of Novel Selenocompounds with Noteworthy Anticancer Activity” (Pharmaceutics, 2022).

test system: not listed separately; assay: Experimental aqueous solubility (UV spectrophotometry of saturated solutions); format: physicochemical; conditions: water (saturated solution), 20 °C, water, thermodynamic from solid; logSm calculated based on solubility Sm (mol/L); read-out: Experimental Aqueous Solubility logSm (converted)
Protocol: Experimental aqueous solubility was determined following a previously described procedure. Briefly, calibration curves were obtained by means of UV spectrometry for each compound, and their respective linear equations were obtained. Afterwards, saturated solutions of each compound were obtained, and they were diluted until the concentration fell within the calibration range, thus enabling the correct concentration interpolation. […] A detailed description of this process can be found in Supplementary Materials.
The aqueous solubility of the tested organic Se compounds was experimentally determined following a previously described procedure. The chosen assay used UV spectrophotometry to estimate the concentration of the saturated solution with known dilutions of the tested compound at room temperature (20° C) after 24 h. The concentrations of the solutions were used to obtain the interpolation of the measured UV absorbance of the saturated solution dilution from the calibration curve drawn using solutions previously prepared in methanol/water mixtures. […]
1.2. Determination of the aqueous solubility
1.2.1. Preparation of the saturated solutions of tested compounds
The saturated solutions (2 mL) of the tested Se-compounds in water were prepared at H2O boiling point in small glass vials. Later, vials were covered to avoid evaporation and all solutions were left 1 day at 20° C, after when every solution was filtered. Finally, the concentration of the Se-compounds was determined through UV spectrophotometric measurements. To estimate correctly the concentration, calibration curves with known concentrations were prepared, and the saturated solutions were diluted till reaching a point within the range of the respective calibration curve.
1.2.2. Preparation of the calibration curve stock solutions for UV spectrometry The stock solutions of 10 selenoesters (EDA-26, EDA-71, EDA-73, EDA-74, EDA-93, […]
were prepared in methanol (99% purity) at a 1 g/L concentration. Additionally, calibration solutions in the range from 0.0005 to 0.02 [g/L] were prepared for each Se-compound and their UV absorbance was determined to draw the corresponding calibration curve.
1.2.3. Sample preparation of saturated filtrates for UV spectrometry
The 100-fold diluted solutions of the saturated filtrates of the Se-compounds were prepared in the anhydrous methanol (99% purity), by addition of 70 μL of the correspond-ing methanol stock solution over anhydrous methanol till filling a 7 mL final volume. Af-terwards, the absorption of abovementioned solutions was determined. Finally, the solu-tions were diluted with 99% methanol from 1 to 160 times, in function of the compound.
The aim of this procedure was to determine the concentration of the Se-compounds […]
through the controlled dilution of the solution with unknown concentration till its UV absorbance fell within the range of the calibration solutions.
1.2.4. Solubility estimation
For each compound, the calibration curve was calculated through the UV absorbance measurements and the linear equation of the linear part of the curve was calculated. The absorbance of the dilution was then interpolated in this range, finding its concentration.
To determine the solubility, this concentration was multiplied by the dilution factor, which was specific for each derivative. This action enabled the estimation of the in vitro solubility of the tested derivatives in saturated solutions. All the solubility values were the average value obtained from the 3 independent measurements.
1.3. PAMPA test: membrane permeability evaluation.
The passive transport and the membrane absorption of 5 selected selenocompounds (EDA-58, EDA-71, EDA-119, EDA-122, EDA-A6) were evaluated in the in vitro Parallel Artificial Membrane Permeability Assay (PAMPA). The protocol of the permeability assay was similar to the ones previously described.
1.3.1. Stock solutions and sample preparation for PAMPA test […]

SMILES	solubility at 24 h [µM]
C[Se]C(=O)c1ccc(C(=O)[Se]C)s1 [EDA-122, Se,Se-dimethyl thiophene-2,5-bis(carboselenoate)]	95.5
COC(=O)C[Se]C(=O)c1cc(OC)c(OC)c(OC)c1 [EDA-26, methyl 2-((3,4,5-trimethoxybenzoyl)selanyl)acetate]	1100
O=C1[Se]C(=O)c2ccccc21 [EDA-A6, benzo[c]selenophene-1,3-dione]	3630
C[Se]C(=O)c1ccc(C(=O)[Se]C)cc1 [EDA-109, Se,Se-dimethyl benzene-1,4-bis(carboselenoate)]	87.1
C[Se]C(=O)c1cccc(C(=O)[Se]C)c1 [EDA-120, Se,Se-dimethyl benzene-1,3-bis(carboselenoate)]	81.3
O=C(C[Se]C(=O)c1ccccc1)Oc1ccccc1 [EDA-93, phenyl 2-(benzoylselanyl)acetate]	69.2

same assay, conditions: water (saturated solution), thermodynamic from solid; water, room temperature (20° C), after 24 h, average of 3; read-out: Experimental Aqueous Solubility

SMILES	solubility at 24 h [µg/mL]
C[Se]C(=O)c1ccc(C(=O)[Se]C)s1 [EDA-122, Se,Se-dimethyl thiophene-2,5-bis(carboselenoate)]	31
COC(=O)C[Se]C(=O)c1cc(OC)c(OC)c(OC)c1 [EDA-26, methyl 2-((3,4,5-trimethoxybenzoyl)selanyl)acetate]	380
O=C1[Se]C(=O)c2ccccc21 [EDA-A6, benzo[c]selenophene-1,3-dione]	758
C[Se]C(=O)c1ccc(C(=O)[Se]C)cc1 [EDA-109, Se,Se-dimethyl benzene-1,4-bis(carboselenoate)]	28
C[Se]C(=O)c1cccc(C(=O)[Se]C)c1 [EDA-120, Se,Se-dimethyl benzene-1,3-bis(carboselenoate)]	26
O=C(C[Se]C(=O)c1ccccc1)Oc1ccccc1 [EDA-93, phenyl 2-(benzoylselanyl)acetate]	22

test system: Salmonella Typhimurium TA100 strain; assay: not given; conditions: 1 µM; TA100; alert ≥ 2.0
Protocol: Safety profiles were evaluated using an in vitro microbiological method adapted to the microplate Ames test (384-well microtitration plate), which applies Salmonella enterica serovar Typhimurium bacterial strains (the gold standard in mutagenicity research). The experiment was performed according to a previously described protocol, which is provided in the Supplementary Materials. Briefly, the TA 100 strain (deprived of the ability to synthesize the histidine) was incubated with each tested compound in an exposure medium containing a limited amount of histidine. The reversion events were counted both manually and by means of a microplate reader. Each fold increase bigger than two times the baseline level (≥2.0-fold) was considered to indicate a mutagen alert. The experiments and data analyses were prepared according to the procedure that was previously described by Flückiger-Isler et al.. The assay was performed in triplicate. The positive control selected for the mutagenicity assays was NQNO, which causes genome point mutations; specifically, it promotes G:C → A:T transitions in the Salmonella Typhimurium TA-100 strain and other bacteria such as Vibrio harveyi and Escherichia coli.
In the next step of the studies, the in vitro safety profiles of the tested selenocompounds were evaluated. All compounds were tested with the 384-well plate microfluctuation Ames test. The mutagenic index (MI) was used as the measure of mutagenicity.
1.5. Safety profile evaluation - Ames microplate mutagenicity assay
Safety profile was evaluated by the means of in vitro microbiological methods – adapted to microplate Ames test, which applies Salmonella enterica serovar Typhimurium bacterial strains (the gold standard in mutagenicity research).
1.5.1. Compounds preparation
To evaluate the impact of tested compounds and of references on Salmonella enterica serovar Typhimurium (onwards Salmonella Typhimurium) TA-100 strain growth by means of the Ames test, the compounds or the reference were dissolved in the pure DMSO, to obtain the corresponding 10 mM stock solutions. Working solutions for tested compounds (25 μM and 250 μM concentrations) were prepared before the assay in DMSO.
1.5.2. Microplate Ames mutagenicity assay protocol
Prior to the experiment, Salmonella Typhimurium was cultured overnight (NB-2 liq-uid medium in the presence of 25 μg/mL ampicillin). At the day of the experiment, fresh dilutions of the tested compounds (25 μM and 250 μM), reference compound (methylse-leninic acid) and standard mutagen (4-nitroquinoline-N-oxide at 2.5 μM and 12.5 μM) in DMSO were prepared. The positive control selected for the mutagenicity assays was NQNO, which causes point mutations at the genome. Specifically, it promotes G:C → A:T transitions in Salmonella Typhimurium TA-100 strain and in the other bacteria such as Vib-rio harveyi and Escherichia coli.
The mutagenic potential of the tested derivatives was evaluated by the incubation of the abovementioned bacteria (deprived of the ability to synthesize the histidine) with spe-cific concentrations of the tested compounds (for 90 min in the exposure medium), con-taining a limited amount of histidine (enough to provide approximately 2-3 cell divisions).
The occurrence of reversion events to histidine prototrophy was observed through the bacterial growth in the indicator medium without histidine after 48 h of incubation in temperature of 37° C [45]. The final compound and the mutagenic agent concentrations in each single well of a 384 well plate were 1 μM and 10 μM for the compounds; and 0.1 μM and 0.5 μM for the mutagen. Lastly, both a manual count and a microplate reader were used to obtain the results. The medium control baseline (MCB) was estimated as the mean number of revertants in the medium control plus one standard deviation. Each fold in-crease bigger than two times the baseline level ≥ 2.0 was considered as a mutagen alert.

SMILES	Fold Increase over Baseline
C[Se]C(=O)c1ccc(C(=O)[Se]C)s1 [EDA-122, Se,Se-dimethyl thiophene-2,5-bis(carboselenoate)]	0.63
COC(=O)C[Se]C(=O)c1cc(OC)c(OC)c(OC)c1 [EDA-26, methyl 2-((3,4,5-trimethoxybenzoyl)selanyl)acetate]	0.96
O=C1[Se]C(=O)c2ccccc21 [EDA-A6, benzo[c]selenophene-1,3-dione]	1.08
C[Se]C(=O)c1ccc(C(=O)[Se]C)cc1 [EDA-109, Se,Se-dimethyl benzene-1,4-bis(carboselenoate)]	0.55
O=C(C[Se]C(=O)c1ccccc1)Oc1ccccc1 [EDA-93, phenyl 2-(benzoylselanyl)acetate]	1.02
COC(=O)C[Se]C(=O)c1cc(OC)cc(OC)c1 [EDA-58, methyl 2-((3,5-dimethoxybenzoyl)selanyl)acetate]	0.67

same assay, conditions: 1 µM; TA100; mutagenic if MI ≥ 2

SMILES	MI (mutagenic index)
C[Se]C(=O)c1ccc(C(=O)[Se]C)s1 [EDA-122, Se,Se-dimethyl thiophene-2,5-bis(carboselenoate)]	0.84
COC(=O)C[Se]C(=O)c1cc(OC)c(OC)c(OC)c1 [EDA-26, methyl 2-((3,4,5-trimethoxybenzoyl)selanyl)acetate]	1.51
O=C1[Se]C(=O)c2ccccc21 [EDA-A6, benzo[c]selenophene-1,3-dione]	1.23
C[Se]C(=O)c1ccc(C(=O)[Se]C)cc1 [EDA-109, Se,Se-dimethyl benzene-1,4-bis(carboselenoate)]	0.96
C[Se]C(=O)c1cccc(C(=O)[Se]C)c1 [EDA-120, Se,Se-dimethyl benzene-1,3-bis(carboselenoate)]	1.24
O=C(C[Se]C(=O)c1ccccc1)Oc1ccccc1 [EDA-93, phenyl 2-(benzoylselanyl)acetate]	1.27
COC(=O)C[Se]C(=O)c1cc(OC)cc(OC)c1 [EDA-58, methyl 2-((3,5-dimethoxybenzoyl)selanyl)acetate]	0.57

same assay, conditions: 1 µM; TA100; threshold ≥ 0.99

SMILES	B (binomial B value)
C[Se]C(=O)c1ccc(C(=O)[Se]C)s1 [EDA-122, Se,Se-dimethyl thiophene-2,5-bis(carboselenoate)]	0.14
COC(=O)C[Se]C(=O)c1cc(OC)c(OC)c(OC)c1 [EDA-26, methyl 2-((3,4,5-trimethoxybenzoyl)selanyl)acetate]	0.92
O=C1[Se]C(=O)c2ccccc21 [EDA-A6, benzo[c]selenophene-1,3-dione]	0.94
C[Se]C(=O)c1ccc(C(=O)[Se]C)cc1 [EDA-109, Se,Se-dimethyl benzene-1,4-bis(carboselenoate)]	0.07
C[Se]C(=O)c1cccc(C(=O)[Se]C)c1 [EDA-120, Se,Se-dimethyl benzene-1,3-bis(carboselenoate)]	1.00
O=C(C[Se]C(=O)c1ccccc1)Oc1ccccc1 [EDA-93, phenyl 2-(benzoylselanyl)acetate]	0.96
COC(=O)C[Se]C(=O)c1cc(OC)cc(OC)c1 [EDA-58, methyl 2-((3,5-dimethoxybenzoyl)selanyl)acetate]	0.80

same assay, conditions: 10 µM

SMILES	cytotoxicity for Salmonella Typhimurium in Ames test
O=C1[Se]C(=O)c2ccccc21 [EDA-A6, benzo[c]selenophene-1,3-dione]	could have been cytotoxic
C[Se]C(=O)c1ccc(C(=O)[Se]C)cc1 [EDA-109, Se,Se-dimethyl benzene-1,4-bis(carboselenoate)]	cytotoxic activity was observed

same assay, conditions: 10 µM; TA100

SMILES	cytotoxic effect label beside B value
O=C1[Se]C(=O)c2ccccc21 [EDA-A6, benzo[c]selenophene-1,3-dione]	C (data points that are significantly smaller (B ≤ 0.01 (bolded)) than the mean number of spontaneous revertants are labelled C for “cytotoxic effect”)
C[Se]C(=O)c1ccc(C(=O)[Se]C)cc1 [EDA-109, Se,Se-dimethyl benzene-1,4-bis(carboselenoate)]	C (data points that are significantly smaller (B ≤ 0.01 (bolded)) than the mean number of spontaneous revertants are labelled C for “cytotoxic effect”)

same assay, conditions: 10 µM; TA100; alert ≥ 2.0

SMILES	Fold Increase over Baseline
C[Se]C(=O)c1ccc(C(=O)[Se]C)s1 [EDA-122, Se,Se-dimethyl thiophene-2,5-bis(carboselenoate)]	1.08
COC(=O)C[Se]C(=O)c1cc(OC)c(OC)c(OC)c1 [EDA-26, methyl 2-((3,4,5-trimethoxybenzoyl)selanyl)acetate]	1.37
O=C1[Se]C(=O)c2ccccc21 [EDA-A6, benzo[c]selenophene-1,3-dione]	0.33
C[Se]C(=O)c1ccc(C(=O)[Se]C)cc1 [EDA-109, Se,Se-dimethyl benzene-1,4-bis(carboselenoate)]	0.39
O=C(C[Se]C(=O)c1ccccc1)Oc1ccccc1 [EDA-93, phenyl 2-(benzoylselanyl)acetate]	0.87
COC(=O)C[Se]C(=O)c1cc(OC)cc(OC)c1 [EDA-58, methyl 2-((3,5-dimethoxybenzoyl)selanyl)acetate]	1.78

same assay, conditions: 10 µM; TA100; mutagenic if MI ≥ 2

SMILES	MI (mutagenic index)
C[Se]C(=O)c1ccc(C(=O)[Se]C)s1 [EDA-122, Se,Se-dimethyl thiophene-2,5-bis(carboselenoate)]	1.46
O=C1[Se]C(=O)c2ccccc21 [EDA-A6, benzo[c]selenophene-1,3-dione]	0.38
C[Se]C(=O)c1ccc(C(=O)[Se]C)cc1 [EDA-109, Se,Se-dimethyl benzene-1,4-bis(carboselenoate)]	0.67
C[Se]C(=O)c1cccc(C(=O)[Se]C)c1 [EDA-120, Se,Se-dimethyl benzene-1,3-bis(carboselenoate)]	1.46
O=C(C[Se]C(=O)c1ccccc1)Oc1ccccc1 [EDA-93, phenyl 2-(benzoylselanyl)acetate]	1.08
COC(=O)C[Se]C(=O)c1cc(OC)cc(OC)c1 [EDA-58, methyl 2-((3,5-dimethoxybenzoyl)selanyl)acetate]	1.51

same assay, conditions: 10 µM; TA100; threshold ≥ 0.99

SMILES	B (binomial B value)
C[Se]C(=O)c1ccc(C(=O)[Se]C)s1 [EDA-122, Se,Se-dimethyl thiophene-2,5-bis(carboselenoate)]	0.94
O=C1[Se]C(=O)c2ccccc21 [EDA-A6, benzo[c]selenophene-1,3-dione]	0.001
C[Se]C(=O)c1cccc(C(=O)[Se]C)c1 [EDA-120, Se,Se-dimethyl benzene-1,3-bis(carboselenoate)]	1.00
O=C(C[Se]C(=O)c1ccccc1)Oc1ccccc1 [EDA-93, phenyl 2-(benzoylselanyl)acetate]	0.80
COC(=O)C[Se]C(=O)c1cc(OC)cc(OC)c1 [EDA-58, methyl 2-((3,5-dimethoxybenzoyl)selanyl)acetate]	1.00

same assay, conditions: TA100, 1 and 10 µM

SMILES	mutagenicity conclusion in Ames test
COC(=O)C[Se]C(=O)c1cc(OC)c(OC)c(OC)c1 [EDA-26, methyl 2-((3,4,5-trimethoxybenzoyl)selanyl)acetate]	may have had mutagenic potential
C[Se]C(=O)c1cccc(C(=O)[Se]C)c1 [EDA-120, Se,Se-dimethyl benzene-1,3-bis(carboselenoate)]	non-mutagenic
